Assay results: US7582649B2, “Hydroxy alkyl substituted 1,3,8-triazaspiro[4.5]decan-4-one derivatives useful for the treatment of ORL-1 receptor mediated disorders” (Janssen Pharmaceutica, NV, priority 2002, dated 2009)
Read-outs that look alike come from different tables or passages of the source.

How the values were obtained:
delta opioid receptor = delta opioid receptor (Homo sapiens, UniProt P41143); assay: Filtration binding assay: delta opioid receptor
kappa opioid receptor = kappa opioid receptor (Homo sapiens, UniProt P41145); assay: Filtration binding assay: kappa opioid receptor
kappa opioid receptor, sequence (P41145 whole entry): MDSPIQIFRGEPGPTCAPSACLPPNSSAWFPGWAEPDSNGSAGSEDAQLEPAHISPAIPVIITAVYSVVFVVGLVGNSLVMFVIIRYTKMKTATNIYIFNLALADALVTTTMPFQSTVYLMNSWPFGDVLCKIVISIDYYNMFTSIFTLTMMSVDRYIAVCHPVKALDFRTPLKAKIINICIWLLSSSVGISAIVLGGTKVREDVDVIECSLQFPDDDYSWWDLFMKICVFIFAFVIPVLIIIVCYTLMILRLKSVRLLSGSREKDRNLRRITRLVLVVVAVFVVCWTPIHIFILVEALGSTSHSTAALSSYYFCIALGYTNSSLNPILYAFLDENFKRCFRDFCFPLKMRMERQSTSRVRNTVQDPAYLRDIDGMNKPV

mu opioid receptor = mu opioid receptor (Homo sapiens, UniProt P35372); assay: Filtration binding assay: mu opioid receptor
mu opioid receptor, sequence (P35372 whole entry): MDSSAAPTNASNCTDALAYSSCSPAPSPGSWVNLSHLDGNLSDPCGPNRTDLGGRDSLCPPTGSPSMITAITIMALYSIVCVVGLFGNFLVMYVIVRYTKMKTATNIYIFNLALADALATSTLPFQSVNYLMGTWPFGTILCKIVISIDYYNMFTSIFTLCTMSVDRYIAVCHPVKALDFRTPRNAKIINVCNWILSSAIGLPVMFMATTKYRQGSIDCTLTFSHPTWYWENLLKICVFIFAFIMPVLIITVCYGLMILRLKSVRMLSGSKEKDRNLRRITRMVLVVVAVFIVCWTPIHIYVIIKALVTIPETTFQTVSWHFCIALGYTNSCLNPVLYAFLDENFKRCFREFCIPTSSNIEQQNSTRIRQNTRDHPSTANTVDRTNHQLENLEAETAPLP

delta opioid receptor, sequence (P41143 whole entry): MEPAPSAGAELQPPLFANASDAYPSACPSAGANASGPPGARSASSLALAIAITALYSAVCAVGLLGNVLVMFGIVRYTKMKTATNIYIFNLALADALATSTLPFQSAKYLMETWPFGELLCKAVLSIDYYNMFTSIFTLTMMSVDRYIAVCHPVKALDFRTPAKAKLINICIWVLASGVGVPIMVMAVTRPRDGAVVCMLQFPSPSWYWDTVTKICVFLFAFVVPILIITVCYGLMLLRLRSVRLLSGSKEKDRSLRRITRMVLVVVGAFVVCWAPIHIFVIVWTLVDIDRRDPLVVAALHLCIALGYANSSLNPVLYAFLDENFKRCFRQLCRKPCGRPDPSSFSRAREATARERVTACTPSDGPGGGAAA

Row | SMILES | IC50 (kappa opioid receptor) [µM] | IC50 (mu opioid receptor) [µM] | other results
1 | COc1ccc(CCNC[C@H](O)CN2CN(c3ccc(F)cc3)C3(CCN(Cc4ccc5ccccc5c4)CC3)C2=O)cc1OC [compound 261] | 0.27 | 1.56 | IC50 (delta opioid receptor): > 10 µM
2 | CNCCCNC[C@@H](O)CN1CN(c2ccc(F)cc2)C2(CCN(Cc3cccc4cccc(C)c34)CC2)C1=O [Compound #656, 1-(4-Fluoro-phenyl)-3-[2-(R)-hydroxy-3-(3-methylamino-propylamino)-propyl]-8-(8-methyl-naphthalen-1-ylmethyl)-1,3,8-triaza-spiro[4.5]decan-4-one] | – | – | Ki (delta opioid receptor): > 5 µM; Ki (kappa opioid receptor): 0.42 µM; Ki (mu opioid receptor): 1.52 µM
3 | CN(C)C[C@@H](O)CN1CN(c2ccc(F)cc2)C2(CCN([C@@H]3Cc4cccc5cccc3c45)CC2)C1=O [Compound #423, (R)-Acenaphthen-1-yl-3-(3-dimethylamino-2-hydroxy-(R)-propyl)-1-(4-fluoro-phenyl)-1,3,8-triaza-spiro[4.5]decan-4-one] | – | – | IC50 (delta opioid receptor; mean where tested more than once, read-out: Delta IC50): > 1 µM; IC50 (kappa opioid receptor; mean where tested more than once, read-out: Kappa IC50): 0.59 µM; IC50 (mu opioid receptor; mean where tested more than once, read-out: Mu IC50): 0.31 µM
4 | COc1cccc(CNC[C@H](O)CN2CN(c3ccc(F)cc3)C3(CCN(CC4CCCCCCC4)CC3)C2=O)c1 [compound 35] | 0.66 | 0.82 | IC50 (delta opioid receptor): > 10 µM
5 | Cc1cccc2cccc(CN3CCC4(CC3)C(=O)N(C[C@H](O)CNCCCNC(=O)OC(C)(C)C)CN4c3ccc(F)cc3)c12 [compound 665] | – | – | Ki (delta opioid receptor): > 5 µM; Ki (kappa opioid receptor): 0.29 µM; Ki (mu opioid receptor): 2.71 µM
6 | Cc1cccc(CNC[C@H](O)CN2CN(c3ccc(F)cc3)C3(CCN(CC4CCCCCCC4)CC3)C2=O)c1 [compound 18] | 0.28 | 0.45 | IC50 (delta opioid receptor): > 10 µM
7 | O=C1N(C[C@H](O)CN2C(CO)C(O)C(O)C2CO)CN(c2ccc(F)cc2)C12CCN(C1CCCCCCC1)CC2 (some centres unmarked) [compound 688] | – | – | Ki (delta opioid receptor): > 5 µM; Ki (kappa opioid receptor): 0.16 µM; Ki (mu opioid receptor): 0.11 µM
8 | CC(C)(C)OC(=O)N1CCN(C[C@H](O)CN2CN(c3ccc(F)cc3)C3(CCN(CC4CCCCCCC4)CC3)C2=O)CC1 [Compound #73] | 0.25 | 0.68 | IC50 (delta opioid receptor): > 10 µM
9 | CNCCCNCC(O)CN1CN(c2ccc(F)cc2)C2(CCN(CC3CCC4CC3C4(C)C)CC2)C1=O (mixture of isomers) [compound 664] | – | – | Ki (delta opioid receptor): > 5 µM; Ki (kappa opioid receptor): 0.72 µM; Ki (mu opioid receptor): 0.26 µM
10 | COc1ccc(CCNC[C@H](O)CN2CN(c3ccc(F)cc3)C3(CCN(Cc4cccc5ccccc45)CC3)C2=O)cc1OC [compound 253] | 0.4 | 0.76 | IC50 (delta opioid receptor): 2.16 µM
11 | Cc1cccc2cccc(CN3CCC4(CC3)C(=O)N(C[C@H](O)CN3CC[C@@H](NC(=O)OC(C)(C)C)C3)CN4c3ccc(F)cc3)c12 [compound 710] | – | – | Ki (delta opioid receptor): > 5 µM; Ki (kappa opioid receptor): 0.36 µM; Ki (mu opioid receptor): 1.09 µM
12 | Cc1cccc2cccc(CN3CCC4(CC3)C(=O)N(CC(O)CN3CCC(N(C)C(=O)OC(C)(C)C)C3)CN4c3ccc(F)cc3)c12 (centres unmarked) [compound 721] | – | – | Ki (delta opioid receptor): > 5 µM; Ki (kappa opioid receptor): 0.17 µM; Ki (mu opioid receptor): 0.59 µM
13 | COc1cc(CCNC[C@H](O)CN2CN(c3ccc(F)cc3)C3(CCN(Cc4cccc5ccccc45)CC3)C2=O)c([N+](=O)[O-])cc1OC [compound 255] | 0.62 | 2.49 | IC50 (delta opioid receptor): > 10 µM
14 | O=C1N(C[C@@H](O)CNCc2ccccn2)CN(c2ccc(F)cc2)C12CCN(CC1CCCCCCC1)CC2 [compound 39] | 3.25 | 8.83 | IC50 (delta opioid receptor): > 10 µM
15 | COc1ccc(CNC[C@@H](O)CN2CN(c3ccc(F)cc3)C3(CCN(CC4CCCCCCC4)CC3)C2=O)cc1OC [Compound #2] | 0.19 | 1.2 | IC50 (delta opioid receptor): > 10 µM
16 | Cc1ccc(CNC[C@H](O)CN2CN(c3ccc(F)cc3)C3(CCN(CC4CCCCCCC4)CC3)C2=O)cc1 [compound 41] | 0.25 | 2.1 | IC50 (delta opioid receptor): > 10 µM
17 | O=C1N(C[C@@H](O)CNCCc2ccc3c(c2)OCO3)CN(c2ccc(F)cc2)C12CCN(Cc1cccc3ccccc13)CC2 [compound 254] | 0.8 | 2.83 | IC50 (delta opioid receptor): > 10 µM
18 | O=C1N(C[C@@H](O)CNCc2cccc(Br)c2)CN(c2ccc(F)cc2)C12CCN(CC1CCCCCCC1)CC2 [compound 20] | 0.44 | 1.28 | IC50 (delta opioid receptor): > 10 µM
19 | CNCCCNC[C@H](O)CN1CN(c2ccccc2)C2(CCN([C@H]3CC[C@@H]4CCCc5cccc3c54)CC2)C1=O [compound 658] | – | – | Ki (delta opioid receptor): > 5 µM; Ki (kappa opioid receptor): 0.13 µM; Ki (mu opioid receptor): 0.17 µM
20 | Cc1cccc2cccc(CN3CCC4(CC3)C(=O)N(C[C@H](O)CN3CCCC3)CN4c3ccc(F)cc3)c12 [compound 705] | – | – | Ki (delta opioid receptor): > 5 µM; Ki (kappa opioid receptor): 0.71 µM; Ki (mu opioid receptor): 1.5 µM
21 | CN(C)CCN(Cc1ccccc1)C[C@H](O)CN1CN(c2ccc(F)cc2)C2(CCN(CC3CCCCCCC3)CC2)C1=O [compound 63] | 0.23 | 3.43 | IC50 (delta opioid receptor): 8.78 µM
22 | CC1(C)[C@H]2CC=C(CN3CCC4(CC3)C(=O)N(C[C@@H](O)CN)CN4c3ccc(F)cc3)[C@@H]1C2 [compound 619] | – | – | Ki (delta opioid receptor): > 5 µM; Ki (kappa opioid receptor): 0.17 µM; Ki (mu opioid receptor): 0.14 µM
23 | CC(=O)NC(CSC[C@H](O)CN1CN(c2ccc(F)cc2)C2(CCN(CC3CCCCCCC3)CC2)C1=O)C(=O)O (single isomer, unassigned) [compound 447] | – | 0.48 | IC50 (delta opioid receptor): 0.48 µM
24 | O=C1N(C[C@@H](O)CN(CCc2ccccc2)Cc2ccccc2)CN(c2ccc(F)cc2)C12CCN(C1Cc3cccc4cccc1c34)CC2 (mixture of isomers) [compound 313] | 0.5 | 0.33 | –

Row | SMILES | IC50 (kappa opioid receptor) [µM] | IC50 (mu opioid receptor) [µM] | other results
25 | O=C1N(C[C@@H](O)CN(Cc2ccccc2)C[C@@H]2CCC[C@@H]2O)CN(c2ccc(F)cc2)C12CCN(CC1CCCCCCC1)CC2 [compound 289] | 0.19 | 1.39 | –
26 | Cc1cccc2cccc(CN3CCC4(CC3)C(=O)N(C[C@@H](O)CN(Cc3ccccc3)C(C)(C)C)CN4c3ccc(F)cc3)c12 [compound 395] | > 10 | 1.1 | –
27 | COc1ccc(CCNC[C@H](O)CN2CN(c3ccc(F)cc3)C3(CCN(Cc4cccc5cccc(C)c45)CC3)C2=O)cc1OC [compound 386] | 3.69 | > 10 | –
28 | Cc1cccc2cccc(CN3CCC4(CC3)C(=O)N(C[C@H](O)CN(Cc3ccccc3)C(C)(C)C)CN4c3ccc(F)cc3)c12 [compound 389] | 9.84 | 7.06 | –
29 | CN(C)CCN(Cc1ccccc1)C[C@H](O)CN1CN(c2ccc(F)cc2)C2(CCN(Cc3cc(C(F)(F)F)cc(C(F)(F)F)c3)CC2)C1=O [compound 674] | ≥ 10 | ≥ 10 | –
30 | O=C1N(C[C@@H](O)CNc2ccc(Br)cn2)CN(c2ccc(F)cc2)C12CCN(CC1CCCCCCC1)CC2 [compound 13] | 0.12 | 0.62 | –
31 | O=C1N(C[C@@H](O)CNc2ccccc2)CN(c2ccc(F)cc2)C12CCN(Cc1c(Cl)cccc1C(F)(F)F)CC2 [compound 458] | 1.45 | > 10 | –
32 | O=C1N(C[C@@H](O)CNc2ccc(C3CCCCC3)cc2)CN(c2ccc(F)cc2)C12CCN(CC1CCCCCCC1)CC2 [compound 285] | 2.69 | 4.78 | –
33 | O=C1N(C[C@@H](O)CNCc2ccc(Cl)cc2Cl)CN(c2ccc(F)cc2)C12CCN(CC1CCCCCCC1)CC2 [compound 31] | 0.28 | 2.93 | –
34 | COc1ccc(CCN(C)C[C@H](O)CN2CN(c3ccc(F)cc3)C3(CCN(Cc4c(Cl)cccc4C(F)(F)F)CC3)C2=O)cc1OC [compound 457] | 9.43 | > 10 | –
35 | CCCCNC[C@H](O)CN1CN(c2ccc(F)cc2)C2(CCN(CC3CCCCCCC3)CC2)C1=O [compound 454] | 0.12 | 0.51 | –
36 | O=C1N(C[C@@H](O)CN2CCc3ccccc3C2)CN(c2ccc(F)cc2)C12CCN(Cc1cc(C(F)(F)F)cc(C(F)(F)F)c1)CC2 [compound 682] | ≥ 10 | ≥ 10 | –
37 | COc1ccc(CCN(C)C[C@H](O)CN2CN(c3ccc(F)cc3)C3(CCN(Cc4cccc5cccc(C)c45)CC3)C2=O)cc1OC [compound 399] | 0.75 | > 10 | –
38 | CCOc1ccccc1NC[C@H](O)CN1CN(c2ccc(F)cc2)C2(CCN(CC3CCCCCCC3)CC2)C1=O [compound 281] | 0.96 | 0.58 | –
39 | O=C1N(C[C@@H](O)CNc2ccc(-c3ccccc3)cc2)CN(c2ccc(F)cc2)C12CCN(CC1CCCCCCC1)CC2 [compound 9] | 1.4 | 0.94 | –
40 | O=C1N(C[C@@H](O)CNCCc2cccs2)CN(c2ccc(F)cc2)C12CCN(CC1CCCCCCC1)CC2 [compound 26] | 0.29 | 0.79 | –
41 | COc1cc(CNC[C@H](O)CN2CN(c3ccc(F)cc3)C3(CCN(C4Cc5cccc6cccc4c56)CC3)C2=O)cc(OC)c1OC (mixture of isomers) [compound 320] | 0.12 | 0.34 | –
42 | O=C1N(C[C@@H](O)CNCc2cc(C(F)(F)F)cc(C(F)(F)F)c2)CN(c2ccc(F)cc2)C12CCN(C1Cc3cccc4cccc1c34)CC2 (mixture of isomers) [compound 319] | 0.58 | 0.32 | –
43 | O=C1N(C[C@@H](O)CNCCc2ccccc2)CN(c2ccc(F)cc2)C12CCN(CC1CCCCCCC1)CC2 [Compound #11] | 0.29 | 0.82 | –
44 | CCCCN(CCCC)CCCNC[C@H](O)CN1CN(c2ccc(F)cc2)C2(CCN(C3Cc4cccc5cccc3c45)CC2)C1=O (mixture of isomers) [compound 338] | 0.14 | 0.74 | –
45 | CCCCN(Cc1ccccc1)C[C@H](O)CN1CN(c2ccc(F)cc2)C2(CCN(Cc3cc(C(F)(F)F)cc(C(F)(F)F)c3)CC2)C1=O [compound 671] | ≥ 10 | ≥ 10 | –
46 | O=C1N(C[C@@H](O)CNCc2cc(F)ccc2F)CN(c2ccc(F)cc2)C12CCN(CC1CCCCCCC1)CC2 [compound 12] | 0.2 | 0.52 | –
47 | COc1ccc(CNC[C@H](O)CN2CN(c3ccc(F)cc3)C3(CCN(CC4CCCCCCC4)CC3)C2=O)cc1OC [compound 22] | 0.3 | 0.6 | –
